# Entries after “also recorded” stand apart in the source; their conditions may differ.
# Tests used:
# P-gp [1] = biological target: T1, P-gp (Homo sapiens, UniProt P08183); test: Study 006 cohort 2: effect of steady-state tezacaftor/ivacaftor on digoxin; assay type: in vivo; details: for CL renal: both, human, urine and plasma, oral
# CYP3A [2] = test: Study 006 cohort 1: effect of itraconazole; assay type: in vivo, human; details: coadministration of itraconazole vs tezacaftor/ivacaftor alone
# CFTR = details: major circulating metabolites in humans; cited from earlier work
# CYP3A [3] = test: Study 770-017: effect of ciprofloxacin; assay type: in vivo, human; details: ciprofloxacin 750 mg q12 h with tezacaftor 50 mg q12 h and ivacaftor 150 mg q12 h
# CYP3A [4] = test: Study 006 cohort 2: effect of steady-state tezacaftor/ivacaftor on midazolam; assay type: in vivo, human; details: midazolam 2.0 mg single dose with/without TEZ 100 mg q.d./IVA 150 mg q12 h, oral, fed, healthy subjects
# CYP3A [5] = details: cited from earlier work
# [6] = cited from earlier work
# [7] = Steady-state PK of tezacaftor q.d./ivacaftor twice daily in patients with CF; assay type: in vivo; details: human, plasma, oral
# CYP3A [8] = details: in vitro; cited from earlier work
# CYP3A [9] = details: human hepatocytes and recombinant human CYP; no reference given; cited from earlier work
# P-gp [10] = biological target: T1, P-gp; details: ivacaftor alone, digoxin as model P‐gp substrate; cited from earlier work
# [11] = cited from earlier work; for Food effect on exposure: fat‐containing food vs fasted state
# CYP3A [12] = details: cited from earlier work; remark: listed apart in the source
# [13] = tested on: permeability glycoprotein (P‐gp) efflux transporter; details: ref 3 (tezacaftor), ref 6 (ivacaftor); cited from earlier work
# [14] = digoxin with tezacaftor 100 mg q.d./ivacaftor 150 mg q12 h vs digoxin alone
# T1 sequence (P08183 whole entry): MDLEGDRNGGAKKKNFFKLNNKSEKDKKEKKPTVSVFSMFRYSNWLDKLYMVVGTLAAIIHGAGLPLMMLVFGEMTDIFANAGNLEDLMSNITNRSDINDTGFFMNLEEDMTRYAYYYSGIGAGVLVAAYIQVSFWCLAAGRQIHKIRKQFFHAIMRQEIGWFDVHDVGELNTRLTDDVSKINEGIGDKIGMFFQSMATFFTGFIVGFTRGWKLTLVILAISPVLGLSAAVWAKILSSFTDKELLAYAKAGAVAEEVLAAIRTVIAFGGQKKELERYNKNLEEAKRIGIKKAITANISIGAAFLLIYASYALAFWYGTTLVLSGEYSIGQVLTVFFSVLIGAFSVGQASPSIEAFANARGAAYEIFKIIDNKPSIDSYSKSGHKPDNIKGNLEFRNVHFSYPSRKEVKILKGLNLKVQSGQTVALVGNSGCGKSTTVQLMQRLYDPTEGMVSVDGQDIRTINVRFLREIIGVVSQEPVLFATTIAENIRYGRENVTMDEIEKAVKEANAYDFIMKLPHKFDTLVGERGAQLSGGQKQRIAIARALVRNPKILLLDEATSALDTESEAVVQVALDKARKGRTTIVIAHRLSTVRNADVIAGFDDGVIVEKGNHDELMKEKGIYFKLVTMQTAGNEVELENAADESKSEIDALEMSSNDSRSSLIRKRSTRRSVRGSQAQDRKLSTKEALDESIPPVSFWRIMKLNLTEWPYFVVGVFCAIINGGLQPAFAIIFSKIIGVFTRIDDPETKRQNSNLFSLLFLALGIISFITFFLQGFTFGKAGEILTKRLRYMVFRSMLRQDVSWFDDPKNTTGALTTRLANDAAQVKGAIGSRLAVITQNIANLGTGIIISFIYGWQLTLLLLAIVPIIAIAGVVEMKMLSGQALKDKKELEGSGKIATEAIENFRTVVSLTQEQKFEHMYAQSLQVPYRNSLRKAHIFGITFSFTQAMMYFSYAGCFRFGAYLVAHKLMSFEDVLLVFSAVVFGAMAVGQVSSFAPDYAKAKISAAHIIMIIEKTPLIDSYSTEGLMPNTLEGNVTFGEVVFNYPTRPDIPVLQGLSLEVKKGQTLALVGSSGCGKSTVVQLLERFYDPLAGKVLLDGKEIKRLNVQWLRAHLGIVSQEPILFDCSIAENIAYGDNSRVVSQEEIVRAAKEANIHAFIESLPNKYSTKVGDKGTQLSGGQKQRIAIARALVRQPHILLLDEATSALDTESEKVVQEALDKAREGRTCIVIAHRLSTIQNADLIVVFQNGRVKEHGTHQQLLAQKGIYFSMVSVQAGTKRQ
smiles,measurement,setting,value
"C[C@H]1O[C@@H](O[C@H]2[C@@H](O)C[C@H](O[C@H]3[C@@H](O)C[C@H](O[C@H]4CC[C@@]5(C)[C@H](CC[C@@H]6[C@@H]5C[C@@H](O)[C@]5(C)[C@@H](C7=CC(=O)OC7)CC[C@]65O)C4)O[C@@H]3C)O[C@@H]2C)C[C@H](O)[C@@H]1O [Digoxin, digoxin]",CL renal,P-gp [1],121 mL/min
same,CL renal,P-gp [1]; 0.5 mg,128 mL/min
same,Increase of AUC with tezacaftor/ivacaftor,P-gp [1]; [14],30%
same,Increase of Cmax with tezacaftor/ivacaftor,P-gp [1]; [14],32%
CC(C)(C)c1cc(C(C)(C)CO)c(O)cc1NC(=O)c1c[nH]c2ccccc2c1=O [M1‐IVA],Increase of AUC with itraconazole,CYP3A [2],3.6 fold
same,Increase of Cmax (GLSM ratio) with itraconazole,CYP3A [2],1.8 fold
same,Pharmacological activity/potency relative to parent,CFTR,approximately one sixth the potency of ivacaftor
same,GLSM ratio range for AUC and Cmax with/without ciprofloxacin,CYP3A [3],0.96−1.10
CC1(C)c2cc3cc(NC(=O)C4(c5ccc6c(c5)OC(F)(F)O6)CC4)c(F)cc3n2CC(CO)OC1O (centres unmarked) [M1‐TEZ],Decrease of AUC with itraconazole,CYP3A [2],~ 40%
same,Decrease of Cmax with itraconazole,CYP3A [2],~ 40%
same,GLSM ratio range for AUC and Cmax with/without ciprofloxacin,CYP3A [3],1.17–1.25
CC(C)(C)c1cc(C(C)(C)C(=O)O)c(O)cc1NC(=O)c1c[nH]c2ccccc2c1=O [M6‐IVA],Decrease of AUC with itraconazole,CYP3A [2],30%
same,Pharmacological activity/potency relative to parent,CFTR,not considered pharmacologically active
same,GLSM ratio range for AUC and Cmax with/without ciprofloxacin,CYP3A [3],0.96−1.10
"Cc1ncc2n1-c1ccc(Cl)cc1C(c1ccccc1F)=NC2 [Midazolam, midazolam]",Effect of TEZ/IVA on PK,CYP3A [4],↔
same,"GLSM ratio (90% CI) with/without TEZ/IVA, AUC",CYP3A [4],1.12 (1.01–1.25)
same,"GLSM ratio (90% CI) with/without TEZ/IVA, Cmax",CYP3A [4],1.13 (1.01–1.25)
same,Increase of exposure with ivacaftor alone,CYP3A [5]; midazolam coadministered with ivacaftor alone,50%
CC(C)(C)c1cc(C(C)(C)C)c(NC(=O)c2c[nH]c3ccccc3c2=O)cc1O [ivacaftor],Eliminated in the feces after metabolic conversion,[6]; oral ivacaftor,87.8%
same,Urinary excretion as unchanged drug,[6]; oral ivacaftor,negligible
same,Total radioactivity recovered in the urine,"[6]; oral ivacaftor, ivacaftor and its metabolites",6.6%
same,half-life,[7],9.3 h
same,Potential for causing DDIs via CYP3A inhibition or induction,CYP3A [8],low potential
same,Metabolic pathway in vitro,CYP3A [9],primarily metabolized via CYP3A‐mediated oxidation
same,"P‐gp inhibition, clinical study",P-gp [10],weak inhibitor of P‐gp; also recorded: mild P‐gp inhibitor
same,Food effect on exposure,[11],increased threefold
same,Increase of AUC with itraconazole,CYP3A [2],15.6 fold
same,Increase of Cmax (GLSM ratio) with itraconazole,CYP3A [2],8.6 fold
same,Decrease in exposure with lumacaftor,CYP3A [12]; ivacaftor administered with lumacaftor,~ 80%
same,P‐gp inhibition in vitro,[13],P‐gp inhibitor in vitro
same,"CYP3A inhibition, clinical data",CYP3A [5]; ivacaftor alone,weak inhibitor of CYP3A
"Cc1ccc(NC(=O)C2(c3ccc4c(c3)OC(F)(F)O4)CC2)nc1-c1cccc(C(=O)O)c1 [lumacaftor, reference compound]",CYP3A induction,CYP3A [12],strong inducer of CYP3A
CC(C)(CO)c1cc2cc(NC(=O)C3(c4ccc5c(c4)OC(F)(F)O5)CC3)c(F)cc2n1C[C@@H](O)CO [tezacaftor],Administered dose excreted in urine as unchanged drug,[6]; oral 14C‐tezacaftor,Less than 1%
same,Dose recovered in urine,"[6]; oral 14C‐tezacaftor, mostly as the M2 metabolite",about 14%
same,Dose excreted in the feces,"[6]; oral 14C‐tezacaftor, unchanged or as the M2 metabolite",72%
same,Mean overall recovery,"[6]; oral 14C‐tezacaftor, up to 21 days after the dose",86%
same,half-life,[7],~156 h
same,Potential for causing DDIs via CYP3A inhibition or induction,CYP3A [8],low potential
same,Metabolic pathway in vitro,CYP3A [9],primarily metabolized via CYP3A‐mediated oxidation; also recorded: direct glucuronidation as a minor metabolic pathway
same,Dose proportionality of exposure,[11]; doses ranging from 10−300 mg,approximately dose‐proportional
same,Food effect on exposure,[11],no food effect
same,Increase of AUC with itraconazole,CYP3A [2],4 fold
same,Increase of Cmax (GLSM ratio) with itraconazole,CYP3A [2],2.8 fold
same,P‐gp inhibition in vitro,[13],not an inhibitor

# Reference: PMC6510372 (Clinical and Translational Science, 2019)
